The values below come from patent US5587479A, “Basic derivatives of glutamic acid and aspartic acid as gastrin or cholecystokinin antagonists” (priority 1992, dated 1996).

Assay [1] has as its system acid secretion induced by pentagastrin. The experiment in a line: Activity against gastric secretion stimulated with pentagastrin in the anaesthetized rat. Format: in vivo. The note with it: for ED50: iv, anaesthetized rat, pentagastrin 30 mcg/kg/h, I.V. bolus, read-out: Antagonistic activity (ID50) towards acid secretion induced by pentagastrin. The method, then: The investigation of the activity against gastric secretion performed by the compounds of the invention by means of an antigastrin mechanism was carried out in vivo in anaesthetized rats with the use of male animals weighing about 200 g. Gastric secretion was stimulated with pentagastrin and the method of K. S. Lai [Gut 5, (1964), 327-341] was used, slightly modified.
After tracheotomy, the oesophagus and duodenum were cannulated. Perfusion was carried out with a tepid solution (37° C.) of 0.25 mM NaOH which was passed through the stomach by means of a peristaltic pump at a constant flow rate of 1 ml/minute. After stabilization for 20 minutes, the stimulant, dissolved in a physiological solution, was perfused for 120 minutes at a dose of 30 mcg/kg/h in a volume of 0.95 ml/hour. After perfusion for 60 minutes (the basal simulation), the product under test was administered intravenously (I.V.) as a bolus and the perfusion of the stimulant was continued for a further 60 minutes. The acid secretion was recorded continuously as a function of time.
The activity of the product was evaluated as the percentage reduction in the secreted acidity after the administration of the product compared with the basal acidity measured during the first 60 minutes of collection in the presence of pentagastrin alone.

The target in assay [2] is T1, central CCK-B receptors (guinea pig cortical membrane) (Cavia porcellus, UniProt H0VZC5).
T1 construct: Cerebral cortices of white male guinea pigs were therefore used; from tissue; host or cells: guinea pig cerebral cortex membranes
T1 sequence (H0VZC5 1-426): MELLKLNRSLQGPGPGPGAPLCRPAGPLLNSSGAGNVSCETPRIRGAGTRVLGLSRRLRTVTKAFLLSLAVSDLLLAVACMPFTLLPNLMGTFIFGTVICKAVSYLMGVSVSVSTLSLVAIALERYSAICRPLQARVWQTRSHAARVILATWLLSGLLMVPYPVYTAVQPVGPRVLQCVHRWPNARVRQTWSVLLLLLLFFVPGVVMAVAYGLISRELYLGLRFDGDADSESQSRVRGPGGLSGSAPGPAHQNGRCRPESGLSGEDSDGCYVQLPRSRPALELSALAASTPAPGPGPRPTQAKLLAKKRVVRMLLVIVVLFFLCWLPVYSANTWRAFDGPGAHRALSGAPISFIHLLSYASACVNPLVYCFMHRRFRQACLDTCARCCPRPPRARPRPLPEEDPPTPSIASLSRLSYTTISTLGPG
The experiment in a line: Inhibition of binding of (3-H)[N-methyl-N-leucine]CCK-8 to guinea pig cortical membranes (anti-CCK-B). The procedure:
Cerebral cortices of white male guinea pigs were therefore used, according to the method mentioned above, so as to obtain a membrane content/ml corresponding to about 300 mcg of proteins/mi. The membranes were incubated together with the radioactive tracer and the compounds under test for 150 minutes at 25° C. After the supernatant liquid had been discarded, the radioactivity associated with the pellet was determined with a liquid scintillator.

Assay [3] relates to mouse. The experiment in a line: Anxiolytic activity in the mouse, Black and White Box test. Format: in vivo. The settings on record: for TOTAL MOV.: five minutes. The method, then: In order to confirm the hypothesis that the potent activity of some of the compounds of the invention against central CCK-B may be correlated with a possible anxiolytic activity, this potential activity was evaluated in the mouse with the use of the "Black and White Box test". This experimental model, which was carried out according to Costall et al. [Pharm. Biochem. Behav. 32 (1989), 777-785] used a box with dimensions of 45×21×21 (h) cm. divided into two compartments which communicated with each other by means of a 13×5 cm hole. The smaller compartment (1/3 of the total area) had black walls, whereas the larger had transparent walls and was illuminated by a lamp which was placed 20 cm above the box and supplied light at 20 W. Under the floor was an activity meter which registered the movements performed by the animal in the individual compartments. The experiment was started by placing the animal in the centre of the illuminated box; as well at its movements, the time which the animal spent in the dark and in the light and the number of times it moved between the 2 compartments were recorded for five minutes. In general, a control animal tended preferably to stay in the dark compartment where it felt better protected from an unusual enviromental situation which put it in a state of anxiety. In this experimental model ( see the reference cited above), a compound having anxiolytic activity decreased the % of movements into the dark in comparison with the total movements, increased the movements between the two light-dark compartments, and increased the % of the total time time spent in the light. The results obtained are given in Table 5 below in which the activities obtained with the compound 1 (the rectus series ) and its enantiomer 2 (sinister) tested in comparison with diazepam and the CCK-B antagonist L365-260.

Assay [4] concerns guinea-pig ureters. The experiment in a line: Antispastic activity in vitro: spontaneous motility of guinea-pig ureters. The settings on record: for IC50: Cavia porcellus, five minutes contact, 37° C. From the text:
The isotonic contractions were detected by means of a force transducer and recorded. […] A given concentration of the product under test was then introduced into the bath and left in contact with the prepared specimen for five minutes, after which the ureter was washed until its own spontaneous activity was re-established.

Assay [5] deals with T2, cholecystokinin receptors of the pancreatic cells of the rat (CCK-A) (Rattus norvegicus, UniProt P30551).
T2 construct: The pancreatic cells of the rat were prepared as described by Makovec et al; from tissue; host or cells: rat pancreatic cells
T2 sequence (P30551 1-444): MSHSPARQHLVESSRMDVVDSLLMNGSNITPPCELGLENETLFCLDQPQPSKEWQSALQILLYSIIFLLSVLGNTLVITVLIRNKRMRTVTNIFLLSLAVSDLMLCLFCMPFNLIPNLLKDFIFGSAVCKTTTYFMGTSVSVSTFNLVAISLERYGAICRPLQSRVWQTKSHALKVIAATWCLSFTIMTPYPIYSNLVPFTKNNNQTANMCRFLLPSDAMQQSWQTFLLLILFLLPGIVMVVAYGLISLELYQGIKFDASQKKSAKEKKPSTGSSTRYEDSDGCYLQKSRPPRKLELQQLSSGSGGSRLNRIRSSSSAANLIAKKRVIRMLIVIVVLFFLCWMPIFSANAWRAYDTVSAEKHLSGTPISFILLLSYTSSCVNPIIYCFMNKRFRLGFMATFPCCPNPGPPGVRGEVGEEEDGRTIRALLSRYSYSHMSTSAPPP
The experiment in a line: Inhibition of the binding of [125-I]-[Bolton-Hunter]-CCK-8 to rat pancreatic cells (anti-CCK-A). The note with it: for IC50: 30 minutes at 37° C., read-out: IC50, inhibition of the binding of (125-I)(B-H)-CCK-8 to the pancreatic cells of the rat. The method, then: The pancreatic cells of the rat were prepared as described by Makovec et al. (reference cited) so as to produce about 5×10^6 cells/mi. The cells were then incubated together with the radioactive tracer and the compounds under test for 30 minutes at 37° C.
After the supernatant liquid had been discarded, the radioactivity associated with the pellet was determined with a gamma counter (80% efficiency).

Setting [6] is: IC50, inhibition of binding of (3-H)[N-methyl-N-leucine]CCK-8 to the guinea pig cortical membrane, 150 minutes at 25° C.
[7] abbreviates: force of the contractions, read-out: IC50 (force), inhibition of the spontaneous motility of guinea-pig ureters in vitro.
Where [8] appears, read: frequency of the contractions, read-out: IC50 (frequency), inhibition of the spontaneous motility of guinea-pig ureters in vitro.

In brackets after ≈: the same amount, converted by molar mass. Where two headings read alike, the source gives them in different places.

As for `CCCN(CCC)C(=O)C(CCC(=O)O)NC(=O)c1ccccc1` (stereo not drawn) [proglumide, reference compound], in assay [1], the ED50 is 500 mg/kg.
Turning to `CN1CCN(C(=O)CC[C@@H](NC(=O)c2cc(Cl)cc(Cl)c2)C(=O)N2CCC3(CCCCC3)CC2)CC1` [Compound 13], in assay [1], the ED50 stood at 8.5 mg/kg.
The same measure, in the same setting: then `CCC(C)(CC)CCNC(=O)C(CC(=O)NCCN1CCOCC1)NC(=O)c1cccc(Cl)c1` (stereo not drawn) [Compound 68], with 31 mg/kg.
`CCCCCN(CCCCC)C(=O)C(CCC(=O)O)NC(=O)c1ccc(Cl)c(Cl)c1` (stereo not drawn) [lorglumide, reference compound]: in assay [1] (rat, up to a dose of 100 mg/kg), the “antigastrin activity (in words)” value was “completely inactive”.
With `CN1CCN(C(=O)C[C@@H](NC(=O)c2cc(Cl)cc(Cl)c2)C(=O)N2CCC3(CCCC3)CC2)CC1` [Compound 70], the ED50 in assay [1] stood at 18.9 mg/kg.
The term IC50 denotes the concentration at which inhibition is half-maximal. As for `CN1CCN(C(=O)CC[C@@H](NC(=O)c2cccc(Cl)c2)C(=O)NCCC(C)(C)C)CC1` [Compound 23], in assay [2] (setting [6]), the IC50 was above 100 µM. Moreover, the ED50 in assay [1] worked out at 25 mg/kg.
Turning to `CN1CCN(C(=O)CC[C@H](NC(=O)c2cc(Cl)cc(Cl)c2)C(=O)N2CCC3(CCCC3)CC2)CC1` [Compound 2], in assay [3] (0.1 mg/kg IP), the “LIGHT TIME (%) TOTAL TIME” value turned out to be 28.3%, the “LIGHT TIME (%) TOTAL TIME: % EFF.VS CONTROL” value was 0%, the “LIGHT-DARK MOVEMENTS” value is 13.2 and the “LIGHT-DARK MOVEMENTS: % EFF. VS CONTROL” value came to 0%. In addition, in assay [3] (0.1 mg/kg IP), the “MOV. DARK (%) TOTAL MOV.” value worked out at 50%, the “MOV. DARK (%) TOTAL MOV.: % EFF. VS CONTROL” value is -4% and the “TOTAL MOV.” value is given as 477. In assay [3] (1 mg/kg IP), the “LIGHT TIME (%) TOTAL TIME” value is given as 27.5%, the “LIGHT TIME (%) TOTAL TIME: % EFF.VS CONTROL” value was found to be 0%, the “LIGHT-DARK MOVEMENTS” value was determined as 12.8 and the “LIGHT-DARK MOVEMENTS: % EFF. VS CONTROL” value is reported as 0%. For the same compound, in assay [3] (1 mg/kg IP), the “MOV. DARK (%) TOTAL MOV.” value turned out to be 50%, the “MOV. DARK (%) TOTAL MOV.: % EFF. VS CONTROL” value is on record as -4% and the “TOTAL MOV.” value came to 462. Besides, the “anxiolytic activity in the Black and White Box test (in words)” value in assay [3] (IP) is “completely inactive”. The compound also yielded an IC50 in assay [2] (setting [6]) above 100 µM. In addition, the 50% inhibitory concentration (IC50) in assay [2] (read-out: IC50, binding to guinea-pig cortical membranes) was above 1 µM. Moreover, the ED50 in assay [1] amounted to 24.8 mg/kg. The IC50 in assay [4] (setting [7]) stood at 25 mg/L (≈ 47.8 µM). In assay [4] (setting [8]), the IC50 is 20 mg/L (≈ 38.2 µM).
On to `CCCCCN(CCCCC)C(=O)[C@@H](CCC(=O)NCCN1CCOCC1)NC(=O)c1ccc2ccccc2c1` [Compound 61], for which the IC50 in assay [5] came to 2.8 µM; in assay [2] (setting [6]) it was 2.9 µM; in assay [4] (setting [7]), 32 mg/L (≈ 57.9 µM); in assay [4] (setting [8]) it was 100 mg/L (≈ 181 µM).
As to `CCCCCN(CCCCC)C(=O)[C@@H](CCC(=O)O)NC(=O)c1ccc(Cl)c(Cl)c1` [R-lorglumide, reference compound], the “times more active than the compound 59 (CCK-A binding)” value in assay [5] (rat pancreatic cells) is “about 25 times”. In addition, in assay [2] (setting [6]), the IC50 is 9.2 µM.
Regarding `CCCCCN(CCCCC)C(=O)C(CCC(=O)NCCN1CCOCC1)NC(=O)c1ccc(C)c(C)c1` (racemic) [Compound 44, (RS) 1-[4'-(ethylenamino)morpholinyl]-1-oxo-4-[(3,4-dimethylbenzoyl)-amino]-5-(dipentylamino) -5-oxopentane], the half-inhibitory concentration (IC50) in assay [2] (setting [6]) worked out at 65.4 µM; in assay [4] (setting [7]), 5 mg/L (≈ 9.42 µM); in assay [4] (setting [8]), 4 mg/L (≈ 7.54 µM). Further, in assay [4], the “activity on guinea-pig ureters (in words)” value was “extremely active”.
As to `O=C(CC[C@@H](NC(=O)c1cc(Cl)cc(Cl)c1)C(=O)N1CCC2(CCCC2)CC1)NCCN1CCOCC1` [Compound 3], the half-inhibitory concentration (IC50) was 2.8 µM in assay [2] (setting [6]), 4.5 mg/L (≈ 8.13 µM) in assay [4] (setting [7]) and 4.3 mg/L (≈ 7.77 µM) in assay [4] (setting [8]). In addition, the ED50 in assay [1] worked out at 12.8 mg/kg. The “activity on guinea-pig ureters (in words)” value in assay [4] is recorded as “extremely active”.
Turning to `CCCCCN(CCCCC)C(=O)[C@@H](CCC(=O)NCCN1CCOCC1)NC(=O)c1cnc2ccccc2c1` [Compound 59], the IC50 in assay [5] was found to be 1.2 µM.
Consider `O=C(O)CC[C@@H](NC(=O)c1cc(Cl)cc(Cl)c1)C(=O)N1CCC2(CCCC2)CC1` [CR 2194, reference compound], for which the IC50 in assay [2] (setting [6]) worked out at 2.4 µM. Further, the ED50 in assay [1] was found to be 11 mg/kg.
